Reference: ChEMBL document CHEMBL3885881, “DrugMatrix”

Species on record: Rattus norvegicus
Assay: DrugMatrix - Regimen: Daily Repeat
Format: toxicity, organism-based, Sprague-Dawley
Parameters: regimen Daily Repeat, gender Male, age 6-8 weeks
Conditions: in vivo, po, route oral GAVAGE, vehicle .5 % CMC; for ABSOLUTE BASOPHIL / ABSOLUTE EOSINOPHIL / ABSOLUTE LYMPHOCYTE / ABSOLUTE MONOCYTE / ABSOLUTE SEGMENTED NEUTROPHIL / BASOPHIL / EOSINOPHIL / ERYTHROCYTE COUNT / HEMATOCRIT / HEMOGLOBIN / LEUKOCYTE COUNT / LYMPHOCYTE / MEAN CORPUSCULAR HEMOGLOBIN / MEAN CORPUSCULAR HEMOGLOBIN CONCENTRATION / MEAN CORPUSCULAR VOLUME / MONOCYTE / NEUTROPHIL / NUCLEATED RED BLOOD CELLS / PLATELET COUNT: tissue Blood; for ALANINE AMINOTRANSFERASE / ALBUMIN / ALKALINE PHOSPHATASE / ASPARTATE AMINOTRANSFERASE / BLOOD UREA NITROGEN / CARBON DIOXIDE / CHLORIDE / CHOLESTEROL / CREATINE PHOSPHOKINASE / CREATININE / GLUCOSE / LACTATE DEHYDROGENASE / LIPASE / PHOSPHORUS / POTASSIUM / SODIUM / TOTAL BILIRUBIN / TOTAL PROTEIN / URIC ACID: tissue Plasma
[1] = 17 mg/kg, 120 h, dose level Low, time 5 day
[2] = 85 mg/kg, 72 h, dose level High, time 3 day
[3] = 85 mg/kg, 120 h, dose level High, time 5 day

`CN1CCN(CCCN2c3ccccc3Sc3ccc(Cl)cc32)CC1` [PROCHLORPERAZINE] was tested, and the “ABSOLUTE BASOPHIL” value [1] was 0 CELLS/uL, the “ABSOLUTE EOSINOPHIL” value [1] was 40 CELLS/uL and the “ABSOLUTE LYMPHOCYTE” value [1] was 12867.33 CELLS/uL. For the same compound, the “ABSOLUTE MONOCYTE” value [1] was 40 CELLS/uL, the “ABSOLUTE SEGMENTED NEUTROPHIL” value [1] was 986 CELLS/uL and the BASOPHIL [1] was 0%. The EOSINOPHIL [1] was 0.33%, the “ERYTHROCYTE COUNT” value [1] was 5.56 x10E6/uL and the HEMATOCRIT [1] was 36.13%. The HEMOGLOBIN [1] was 14.37 G/DL, the “LEUKOCYTE COUNT” value [1] was 13.93 x10E3/uL and the LYMPHOCYTE [1] was 92.33%. The “MEAN CORPUSCULAR HEMOGLOBIN” value [1] was 25.87 pg, the “MEAN CORPUSCULAR HEMOGLOBIN CONCENTRATION” value [1] was 39.77 G/DL and the “MEAN CORPUSCULAR VOLUME” value [1] was 65.13 fL. The MONOCYTE [1] was 0.33%, the NEUTROPHIL [1] was 7% and the “NUCLEATED RED BLOOD CELLS” value [1] was 0 /100WBC. For the same compound, the “PLATELET COUNT” value [1] was 1289.67 x10E3/uL, the “ALANINE AMINOTRANSFERASE” value [1] was 45.33 u/L and the ALBUMIN [1] was 4.27 G/DL. The “ALKALINE PHOSPHATASE” value [1] was 464.33 u/L, the “ASPARTATE AMINOTRANSFERASE” value [1] was 85 u/L and the “BLOOD UREA NITROGEN” value [1] was 15.33 mg/dL. The “CARBON DIOXIDE” value [1] was 27.33 mmol/L, the CHLORIDE [1] was 100.67 MEQ/L and the CHOLESTEROL [1] was 75.67 mg/dL. For the same compound, the “CREATINE PHOSPHOKINASE” value [1] was 372 u/L, the CREATININE [1] was 0.12 mg/dL and the GLUCOSE [1] was 141.67 mg/dL. For the same compound, the “LACTATE DEHYDROGENASE” value [1] was 401 u/L, the LIPASE [1] was 9 u/L and the PHOSPHORUS [1] was 12.43 mg/dL. The POTASSIUM [1] was 6.4 MEQ/L, the SODIUM [1] was 143.33 MEQ/L and the “TOTAL BILIRUBIN” value [1] was 0.17 mg/dL. The “TOTAL PROTEIN” value [1] was 6.1 G/DL, the “URIC ACID” value [1] was 1.33 mg/dL and the “ABSOLUTE BASOPHIL” value [2] was 0 CELLS/uL. The “ABSOLUTE EOSINOPHIL” value [2] was 81.33 CELLS/uL, the “ABSOLUTE LYMPHOCYTE” value [2] was 10099 CELLS/uL and the “ABSOLUTE MONOCYTE” value [2] was 0 CELLS/uL. For the same compound, the “ABSOLUTE SEGMENTED NEUTROPHIL” value [2] was 453 CELLS/uL, the BASOPHIL [2] was 0% and the EOSINOPHIL [2] was 0.67%. For the same compound, the “ERYTHROCYTE COUNT” value [2] was 6.34 x10E6/uL, the HEMATOCRIT [2] was 40.77% and the HEMOGLOBIN [2] was 16.03 G/DL. The “LEUKOCYTE COUNT” value [2] was 10.63 x10E3/uL, the LYMPHOCYTE [2] was 95.33% and the “MEAN CORPUSCULAR HEMOGLOBIN” value [2] was 25.3 pg. The “MEAN CORPUSCULAR HEMOGLOBIN CONCENTRATION” value [2] was 39.37 G/DL, the “MEAN CORPUSCULAR VOLUME” value [2] was 64.3 fL and the MONOCYTE [2] was 0%. The NEUTROPHIL [2] was 4%, the “NUCLEATED RED BLOOD CELLS” value [2] was 1 /100WBC and the “PLATELET COUNT” value [2] was 1132 x10E3/uL. For the same compound, the “ALANINE AMINOTRANSFERASE” value [2] was 31.33 u/L, the ALBUMIN [2] was 4.87 G/DL and the “ALKALINE PHOSPHATASE” value [2] was 290 u/L. For the same compound, the “ASPARTATE AMINOTRANSFERASE” value [2] was 67.33 u/L, the “BLOOD UREA NITROGEN” value [2] was 24 mg/dL and the “CARBON DIOXIDE” value [2] was 22.67 mmol/L. The CHLORIDE [2] was 108 MEQ/L, the CHOLESTEROL [2] was 89 mg/dL and the “CREATINE PHOSPHOKINASE” value [2] was 161.33 u/L. The CREATININE [2] was 0.2 mg/dL, the GLUCOSE [2] was 145.67 mg/dL and the “LACTATE DEHYDROGENASE” value [2] was 143.33 u/L. The LIPASE [2] was 8 u/L, the PHOSPHORUS [2] was 11.93 mg/dL and the POTASSIUM [2] was 6.09 MEQ/L. The SODIUM [2] was 150.37 MEQ/L, the “TOTAL BILIRUBIN” value [2] was 0.2 mg/dL and the “TOTAL PROTEIN” value [2] was 7.03 G/DL. The “URIC ACID” value [2] was 2.53 mg/dL, the “ABSOLUTE BASOPHIL” value [3] was 0 CELLS/uL and the “ABSOLUTE EOSINOPHIL” value [3] was 0 CELLS/uL. For the same compound, the “ABSOLUTE LYMPHOCYTE” value [3] was 10951.33 CELLS/uL, the “ABSOLUTE MONOCYTE” value [3] was 241 CELLS/uL and the “ABSOLUTE SEGMENTED NEUTROPHIL” value [3] was 641 CELLS/uL. The BASOPHIL [3] was 0%, the EOSINOPHIL [3] was 0% and the “ERYTHROCYTE COUNT” value [3] was 6.41 x10E6/uL. The HEMATOCRIT [3] was 38.7%, the HEMOGLOBIN [3] was 15.23 G/DL and the “LEUKOCYTE COUNT” value [3] was 11.83 x10E3/uL. For the same compound, the LYMPHOCYTE [3] was 92.67%, the “MEAN CORPUSCULAR HEMOGLOBIN” value [3] was 23.73 pg and the “MEAN CORPUSCULAR HEMOGLOBIN CONCENTRATION” value [3] was 39.33 G/DL. For the same compound, the “MEAN CORPUSCULAR VOLUME” value [3] was 60.37 fL, the MONOCYTE [3] was 2% and the NEUTROPHIL [3] was 5.33%. The “NUCLEATED RED BLOOD CELLS” value [3] was 0 /100WBC, the “PLATELET COUNT” value [3] was 1133 x10E3/uL and the “ALANINE AMINOTRANSFERASE” value [3] was 46.33 u/L. The ALBUMIN [3] was 4.37 G/DL, the “ALKALINE PHOSPHATASE” value [3] was 354.33 u/L and the “ASPARTATE AMINOTRANSFERASE” value [3] was 99.67 u/L. The “BLOOD UREA NITROGEN” value [3] was 21.33 mg/dL, the “CARBON DIOXIDE” value [3] was 24.67 mmol/L and the CHLORIDE [3] was 105.67 MEQ/L. The CHOLESTEROL [3] was 84.67 mg/dL, the “CREATINE PHOSPHOKINASE” value [3] was 760.33 u/L and the CREATININE [3] was 0.23 mg/dL. For the same compound, the GLUCOSE [3] was 146 mg/dL, the “LACTATE DEHYDROGENASE” value [3] was 421 u/L and the LIPASE [3] was 9 u/L. The PHOSPHORUS [3] was 11.03 mg/dL, the POTASSIUM [3] was 6.4 MEQ/L and the SODIUM [3] was 147.97 MEQ/L. For the same compound, the “TOTAL BILIRUBIN” value [3] was 0.27 mg/dL, the “TOTAL PROTEIN” value [3] was 6.17 G/DL and the “URIC ACID” value [3] was 1.8 mg/dL.
